{"source": "patent US9624229B2", "about": "“Pyrimidine-2-amine compounds and their use as inhibitors of JAK kinases” (Rigel Pharmaceuticals, Inc., priority 2008, dated 2017)"}
{"target": "Ba/F3 V617F cells (Homo sapiens, UniProt O60674, V617F, cells depend on it)", "sequence (O60674 whole entry V617F)": "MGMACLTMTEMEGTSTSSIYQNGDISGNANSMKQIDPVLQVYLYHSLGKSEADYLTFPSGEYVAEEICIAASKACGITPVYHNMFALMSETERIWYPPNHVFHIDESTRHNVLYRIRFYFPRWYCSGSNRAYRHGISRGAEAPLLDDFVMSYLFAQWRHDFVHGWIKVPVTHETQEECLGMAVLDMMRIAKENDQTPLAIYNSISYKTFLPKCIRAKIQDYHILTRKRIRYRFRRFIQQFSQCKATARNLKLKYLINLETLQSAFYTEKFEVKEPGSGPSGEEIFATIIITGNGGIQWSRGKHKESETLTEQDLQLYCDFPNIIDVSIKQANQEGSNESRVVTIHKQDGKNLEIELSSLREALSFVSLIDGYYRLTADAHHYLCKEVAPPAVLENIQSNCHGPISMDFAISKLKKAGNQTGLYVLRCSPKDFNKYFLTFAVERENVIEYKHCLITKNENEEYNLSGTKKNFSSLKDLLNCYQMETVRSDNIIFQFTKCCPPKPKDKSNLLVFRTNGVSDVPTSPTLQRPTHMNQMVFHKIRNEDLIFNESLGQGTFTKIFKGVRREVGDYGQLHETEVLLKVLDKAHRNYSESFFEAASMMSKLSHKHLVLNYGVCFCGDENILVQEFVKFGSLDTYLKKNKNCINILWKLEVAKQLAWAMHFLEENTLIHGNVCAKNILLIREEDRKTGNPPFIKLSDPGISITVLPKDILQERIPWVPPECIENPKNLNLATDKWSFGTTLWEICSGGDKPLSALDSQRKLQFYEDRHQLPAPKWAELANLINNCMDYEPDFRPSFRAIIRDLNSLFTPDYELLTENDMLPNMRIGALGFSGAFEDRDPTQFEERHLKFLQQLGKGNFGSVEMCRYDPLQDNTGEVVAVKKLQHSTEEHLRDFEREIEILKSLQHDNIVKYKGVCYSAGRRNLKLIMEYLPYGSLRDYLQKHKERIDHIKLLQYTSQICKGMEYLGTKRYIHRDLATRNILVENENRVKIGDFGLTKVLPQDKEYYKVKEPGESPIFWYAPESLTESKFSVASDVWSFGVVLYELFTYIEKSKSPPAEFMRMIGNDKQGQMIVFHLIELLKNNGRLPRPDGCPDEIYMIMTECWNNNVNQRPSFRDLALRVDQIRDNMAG", "assay": "Proliferation assay (Cell Titer-Glo, 72 h) utilizing Ba/F3 V617F cells", "type": "cell-based, mouse", "conditions": "Ba/F3 V617F cells, proliferation, level of activity given as class symbol, read-out: IC50 (the source's name)", "description": "(§1) Ba/F3 V617F cells are maintained and plated in RPMI with 10% FBS. Plating density for these cells is 1×10^5 cells/mL.\n(§2) The cells were resuspended in a corresponding medium at a required cell density (see above). 100μ of cell suspension was added to each well of a flat bottom 96 well white plate. The compound was serially diluted in DMSO from 5 mM in 3-fold dilutions, and then diluted 1:250 in the RPMI 1640 medium containing 5% FBS and pen/strep. 100 μL of resulting 2× compound solution was added per well in duplicate and the cells were allowed to proliferate for 72 hours at 37° C.\n(§3) Proliferation was measured using Cell Titer-Glo. The substrate was thawed and allowed to come to ambient temperature. After removal of top 100 μL of medium from each well, 100 μL of the premixed Cell Titer-Glo reagent was added to each well. The plates were mixed on an orbital shaker for three minutes to induce lysis and incubated at ambient temperature for an additional five minutes to allow the signal to equilibrate. The Luminescence was read on the Wallac Plate Reader.\n(§4) The results of the ability of the compounds of the invention to inhibit JAK2 activity, when tested in the above assay utilizing Ba/F3 V617F cells, are shown in the following Tables 2-3 wherein the level of activity (i.e., the IC50) for each compound is indicated in Tables 2-3. The compound numbers in Tables 2-3 refers to the compounds disclosed herein as being prepared by the methods disclosed herein: […]", "units": {"GI50": "µM"}}
{"smiles": "CS(=O)(=O)N1CC2CC1CC2c1ccc(Nc2nccc(-c3ccc(N4CCOCC4)nc3)n2)cc1", "note": "(centres unmarked) [compound 227, 4-(6-(morpholin-4-yl)pyridin-3-yl)-N-(4-(2-methylsulfonyl-2-azabicyclo[2.2.1]heptan-5-yl)phenyl)pyrimidin-2-amine]", "GI50": "< 1"}
{"smiles": "CN1C[C@@H]2C[C@H]1CN2c1ccc(Nc2nccc(-c3ccc4c(ccn4-c4ccncc4)c3)n2)cc1F", "note": "[compound 233, 4-(1-(pyridin-4-yl)-1H-indol-5-yl)-N-(3-fluoro-4-((1S,4S)-5-methyl-2,5-diazabicyclo[2.2.1]heptan-2-yl)phenyl)pyrimidin-2-amine]", "GI50": "< 1"}
{"smiles": "Cc1cc(Nc2nccc(-c3ccc4c(ccn4-c4ccncc4)c3)n2)ccc1N1C[C@@H]2C[C@H]1CN2CC(C)C", "note": "[compound 235, 4-(1-(pyridin-4-yl)-1H-indol-5-yl)-N-(3-methyl-4-((1S,4S)-5-isobutyl-2,5-diazabicyclo[2.2.1]heptan-2-yl)phenyl)pyrimidin-2-amine]", "GI50": "< 1"}
{"smiles": "Cc1cc(Nc2nccc(-c3cnc4c(c3)OCCN4C)n2)ccc1N1C[C@@H]2C[C@H]1CN2S(C)(=O)=O", "note": "[compound 193, 4-(4-methyl-3,4-dihydro-2H-pyrido[3,2-b][1,4]oxazin-7-yl)-N-(3-methyl-4-((1S,4S)-5-methylsulfonyl-2,5-diazabicyclo[2.2.1]heptan-2-yl)phenyl)pyrimidin-2-amine]", "GI50": "< 1"}
{"smiles": "Cc1cc(Nc2nccc(-c3ccc(NCCCN(C)C)nc3)n2)ccc1N1C[C@@H]2C[C@H]1CN2C", "note": "[compound 198, 4-(6-(3-dimethylamino)propylaminopyridin-3-yl)-N-(3-methyl-4-((1S,4S)-5-methyl-2,5-diazabicyclo[2.2.1]heptan-2-yl)phenyl)pyrimidin-2-amine]", "GI50": "1 to 10"}
{"smiles": "Cc1cc(Nc2nccc(-c3ccnc(C(F)(F)F)c3)n2)ccc1N1C[C@@H]2C[C@H]1CN2C", "note": "[compound 256, 4-(2-(trifluoromethyl)pyridin-4-yl)-N-(3-methyl-4-((1S,4S)-5-methyl-2,5-diazabicyclo[2.2.1]heptan-2-yl)phenyl)pyrimidin-2-amine]", "GI50": "< 1"}
{"smiles": "Cc1cc(Nc2nccc(-c3ccc(N4C[C@@H]5C[C@H]4CO5)nc3)n2)ccc1N1C[C@@H]2C[C@H]1CN2S(C)(=O)=O", "note": "[compound 264, 4-(6-((1S,4S)-2-oxa-5-azabicyclo[2.2.1]heptan-5-yl)pyridin-3-yl)-N-(3-methyl-4-((1S,4S)-5-(methylsulfonyl)-2,5-diazabicyclo[2.2.1]heptan-2-yl)phenyl)pyrimidin-2-amine]", "GI50": "< 1"}
{"smiles": "Cc1cc(Nc2nccc(-c3cnc4c(c3)OC(C)(C)C(=O)N4)n2)ccc1N1C[C@@H]2C[C@H]1CN2C1CC1", "note": "[compound 247, 4-(2,2-dimethyl-3-oxo-3,4-dihydro-2H-pyrido[3,2-b][1,4]oxazin-7-yl)-N-(3-methyl-4-((1S,4S)-5-cyclopropyl-2,5-diazabicyclo[2.2.1]heptan-2-yl)phenyl)pyrimidin-2-amine]", "GI50": "< 1"}
{"smiles": "Cc1cc(Nc2nccc(-c3ccc(N4CCCOCC4)nc3)n2)ccc1N1C[C@@H]2C[C@H]1CO2", "note": "[compound 204, 4-(6-(1,4-oxazepan-4-yl)pyridin-3-yl)-N-(3-methyl-4-((1S,4S)-5-oxa-2-azabicyclo[2.2.1]heptan-2-yl)phenyl)pyrimidin-2-amine]", "GI50": "< 1"}
{"target": "Ba/F3 V617F cells (Homo sapiens, UniProt O60674, V617F, cells depend on it)", "assay": "Proliferation assay (Cell Titer-Glo, 72 h) utilizing Ba/F3 V617F cells", "type": "cell-based, mouse", "conditions": "Ba/F3 V617F cells, proliferation, level of activity to inhibit JAK2, read-out: IC50 (the source's name)", "description": "as §1, §2, §3, §4", "units": {"GI50": "µM"}}
{"smiles": "CN(C)c1ccc(-c2nc(Nc3ccc(N4C[C@@H]5C[C@H]4CN5C)c(F)c3)ncc2F)cn1", "note": "[compound 5, 4-(6-(N,N-dimethylamino)pyridin-3-yl)-5-fluoro-N-(3-fluoro-4-((1S,4S)-5-methyl-2,5-diazabicyclo[2.2.1]heptan-2-yl)phenyl)pyrimidin-2-amine]", "GI50": "1 to 10"}
{"smiles": "Cc1cc(Nc2nccc(-c3ccc4ncn(C)c4c3)n2)ccc1N1C[C@@H]2C[C@H]1CN2C", "note": "[compound 107, 4-(1-methylbenzimidazol-6-yl)-N-(3-methyl-4-((1S,4S)-5-methyl-2,5-diazabicyclo[2.2.1]heptan-2-yl)phenyl)pyrimidin-2-amine]", "GI50": "< 1"}
{"smiles": "Cc1cc(Nc2nccc(-c3cnc(N4CCOCC4)cn3)n2)ccc1N1C[C@@H]2C[C@H]1CN2C", "note": "[compound 178, 4-(5-(morpholin-4-yl)pyrazin-2-yl)-N-(3-methyl-4-((1S,4S)-5-methyl-2,5-diazabicyclo[2.2.1]heptan-2-yl)phenyl)pyrimidin-2-amine]", "GI50": "1 to 10"}
{"smiles": "Cc1cc(Nc2nccc(-c3cnc4c(c3)OC(C)(C)C(=O)N4)n2)ccc1N1C[C@H]2C[C@@H]1CN2C", "note": "[compound 71, 4-(2,2-dimethyl-3-oxo-3,4-dihydro-2H-pyrido[3,2-b][1,4]oxazin-7-yl)-N-(3-methyl-4-((1R,4R)-5-methyl-2,5-diazabicyclo[2.2.1]heptan-2-yl)phenyl)pyrimidin-2-amine]", "GI50": "< 1"}
{"smiles": "CN1C[C@@H]2C[C@H]1CN2c1ccc(Nc2nccc(-c3cnc(N4CCOCC4)nc3)n2)cc1", "note": "[compound 40, 4-(2-(morpholin-4-yl)pyrimidin-5-yl)-N-(4-((1S,4S)-5-methyl-2,5-diazabicyclo[2.2.1]heptan-2-yl)phenyl)pyrimidin-2-amine]", "GI50": "1 to 10"}
{"smiles": "Cc1cc(Nc2nccc(-c3cncc(S(C)(=O)=O)c3)n2)ccc1N1C[C@@H]2C[C@H]1CN2C", "note": "[compound 95, 4-(5-(methyl)sulfonylpyridin-3-yl)-N-(3-methyl-4-((1S,4S)-5-methyl-2,5-diazabicyclo[2.2.1]heptan-2-yl)phenyl)pyrimidin-2-amine]", "GI50": "< 1"}
{"smiles": "Cc1cc(Nc2nccc(-c3cnc4c(c3)CCC(=O)N4)n2)ccc1N1C[C@@H]2C[C@H]1CN2C", "note": "[compound 51, 4-(7-oxo-5,6,7,8-tetrahydro-1,8-naphthyridin-3-yl)-N-(3-methyl-4-((1S,4S)-5-methyl-2,5-diazabicyclo[2.2.1]heptan-2-yl)phenyl)pyrimidin-2-amine]", "GI50": "< 1"}
{"smiles": "CCNC(=O)N1C[C@@H]2C[C@H]1CN2c1ccc(Nc2nccc(-c3ccc(N4CCOCC4)nc3)n2)cc1C", "note": "[compound 26, 4-(6-(morpholin-4-yl)pyridin-3-yl)-N-(3-methyl-4-((1S,4S)-5-((ethylamino)carbonyl)-2,5-diazabicyclo[2.2.1]heptan-2-yl)phenyl)pyrimidin-2-amine]", "GI50": "< 1"}
{"smiles": "Cc1cc(Nc2nccc(-c3ccc4cc[nH]c4c3)n2)ccc1N1C[C@@H]2C[C@H]1CN2C", "note": "[compound 21, 4-(1H-indol-6-yl)-N-(3-methyl-4-((1S,4S)-5-methyl-2,5-diazabicyclo[2.2.1]heptan-2-yl)phenyl)pyrimidin-2-amine]", "GI50": "< 1"}
{"smiles": "CCN(CC)c1nc(-c2ccnc(Nc3ccc(N4C[C@@H]5C[C@H]4CN5C)c(F)c3)n2)cs1", "note": "[compound 164, 4-(2-(diethylamino)thiazol-4-yl)-N-(3-fluoro-4-((1S,4S)-5-methyl-2,5-diazabicyclo[2.2.1]heptan-2-yl)phenyl)pyrimidin-2-amine]", "GI50": "< 1"}
{"smiles": "Cc1cc(Nc2nccc(-c3ccc(C(=O)Nc4ccccn4)cc3)n2)ccc1N1CCN2CCC1CC2", "note": "[compound 161, 4-(4-((pyridin-2-yl)aminocarbonyl)phenyl)-N-(3-methyl-4-(1,4-diazabicyclo[3.2.2]nonan-4-yl)phenyl)pyrimidin-2-amine]", "GI50": "< 1"}
{"smiles": "Cc1cc(Nc2nccc(-c3cncc(C#N)c3)n2)ccc1N1C[C@@H]2C[C@H]1CN2C", "note": "[compound 114, 4-(5-cyanopyridin-3-yl)-N-(3-methyl-4((1S,4S)-5-methyl-2,5-diazabicyclo[2.2.1]heptan-2-yl)phenyl)pyrimidin-2-amine]", "GI50": "1 to 10"}
{"smiles": "Cc1cc(Nc2nccc(-c3cnc4[nH]ccc4c3)n2)ccc1N1C[C@@H]2C[C@H]1CN2CC(F)(F)F", "note": "[compound 34, 4-(1H-pyrrolo[2,3-b]pyridin-5-yl)-N-(3-methyl-4-((1S,4S)-5-(2,2,2-trifluoroethyl)-2,5-diazabicyclo[2.2.1]heptan-2-yl)phenyl)pyrimidin-2-amine]", "GI50": "< 1"}
{"smiles": "Cc1cc(Nc2nccc(-c3ccc(-c4nnn[nH]4)nc3)n2)ccc1N1C[C@@H]2C[C@H]1CN2C", "note": "[compound 115, 4-(6-(1H-tetrazol-5-yl)pyridin-3-yl)-N-(3-methyl-4((1S,4S)-5-methyl-2,5-diazabicyclo[2.2.1]heptan-2-yl)phenyl)pyrimidin-2-amine]", "GI50": "10 to 20"}
{"smiles": "CN1C[C@@H]2C[C@H]1CN2c1ccc(Nc2nccc(-c3ccc(NC(=O)C(C)(C)C)cc3)n2)cc1F", "note": "[compound 128, 4-(4-(t-butylcarbonylamino)phenyl)-N-(3-fluoro-4-((1S,4S)-5-methyl-2,5-diazabicyclo[2.2.1]heptan-2-yl)phenyl)pyrimidin-2-amine]", "GI50": "< 1"}
{"smiles": "CS(=O)(=O)N1C[C@@H]2C[C@H]1CN2c1ccc(Nc2nccc(-c3ccc(N4CCOCC4)nc3)n2)cc1C#N", "note": "[compound 117, 4-(6-(morpholin-4-yl)pyridin-3-yl)-N-(3-cyano-4-((1S,4S)-5-methylsulfonyl-2,5-diazabicyclo[2.2.1]heptan-2-yl)phenyl)pyrimidin-2-amine]", "GI50": "< 1"}
{"target": "Ba/F3 V617F cells (Homo sapiens, UniProt O60674, V617F, cells depend on it)", "assay": "Proliferation assay (Cell Titer-Glo, 72 h) utilizing Ba/F3 V617F cells", "type": "cell-based, mouse", "conditions": "inhibition of JAK2 activity, proliferation of Ba/F3 V617F cells, read-out: IC50 (the source's name)", "description": "as §1, §2, §3, §4", "units": {"GI50": "µM"}}
{"smiles": "CC(=O)Nc1ccc(-c2ccnc(Nc3ccc(N4C[C@@H]5C[C@H]4CN5C)nc3)n2)cn1", "note": "[compound 55, 4-(6-(methylcarbonylamino)pyridin-3-yl)-N-(6-((1S,4S)-5-methyl-2,5-diazabicyclo[2.2.1]heptan-2-yl)pyridin-3-yl)pyrimidin-2-amine]", "GI50": "1 to 10"}
